Numbers after ± are expanded uncertainties.
Experiment: xn = mol fraction of the nth substance listed
Settings: Constant-volume piezometry

CCCCC [pentane] + CCCO
mass density (553.15 K, 10864 kPa, Fluid (supercritical or subcritical phases), x1 = 0.9): 311.86 ± 1.6 kg/m3 | mass density (553.15 K, 11147 kPa, Fluid (supercritical or subcritical phases), x1 = 0.2): 390.67 ± 2 kg/m3 | mass density (553.15 K, 11334 kPa, Fluid (supercritical or subcritical phases), x1 = 0.8): 314.89 ± 1.6 kg/m3 | mass density (553.15 K, 12137 kPa, Fluid (supercritical or subcritical phases), x1 = 0.9): 333.53 ± 1.7 kg/m3 | mass density (553.15 K, 12374 kPa, Fluid (supercritical or subcritical phases), x1 = 0.8): 333.35 ± 1.7 kg/m3 | mass density (553.15 K, 13032 kPa, Fluid (supercritical or subcritical phases), x1 = 0.2): 418.04 ± 2.1 kg/m3 | mass density (553.15 K, 13118 kPa, Fluid (supercritical or subcritical phases), x1 = 0.8): 344.85 ± 1.7 kg/m3 | mass density (553.15 K, 13951 kPa, Fluid (supercritical or subcritical phases), x1 = 0.9): 353.59 ± 1.8 kg/m3 | mass density (553.15 K, 14669 kPa, Fluid (supercritical or subcritical phases), x1 = 0.8): 361.39 ± 1.8 kg/m3 | mass density (553.15 K, 18451 kPa, Fluid (supercritical or subcritical phases), x1 = 0.2): 469.6 ± 2.4 kg/m3 | mass density (553.15 K, 20863 kPa, Fluid (supercritical or subcritical phases), x1 = 0.9): 406.66 ± 2 kg/m3 | mass density (553.15 K, 21933 kPa, Fluid (supercritical or subcritical phases), x1 = 0.8): 417.56 ± 2.1 kg/m3 | mass density (553.15 K, 25921 kPa, Fluid (supercritical or subcritical phases), x1 = 0.2): 508.72 ± 2.6 kg/m3 | mass density (553.15 K, 34331 kPa, Fluid (supercritical or subcritical phases), x1 = 0.8): 465.95 ± 2.4 kg/m3 | mass density (553.15 K, 37494 kPa, Fluid (supercritical or subcritical phases), x1 = 0.2): 546.06 ± 2.8 kg/m3 | mass density (563.15 K, 1429 kPa, Gas, x1 = 0.8): 22.48 ± 0.07 kg/m3 | mass density (563.15 K, 1719 kPa, Gas, x1 = 0.2): 24.88 ± 0.08 kg/m3 | mass density (563.15 K, 2200 kPa, Gas, x1 = 0.8): 36.62 ± 0.11 kg/m3 | mass density (563.15 K, 3253 kPa, Gas, x1 = 0.8): 58.3 ± 0.18 kg/m3 | mass density (563.15 K, 3644 kPa, Gas, x1 = 0.2): 52.9 ± 0.16 kg/m3 | mass density (563.15 K, 3914 kPa, Fluid (supercritical or subcritical phases), x1 = 0.8): 73.65 ± 0.37 kg/m3 | mass density (563.15 K, 4188 kPa, Fluid (supercritical or subcritical phases), x1 = 0.9): 83.22 ± 0.42 kg/m3 | mass density (563.15 K, 4893 kPa, Fluid (supercritical or subcritical phases), x1 = 0.2): 91.24 ± 0.46 kg/m3 | mass density (563.15 K, 5140 kPa, Fluid (supercritical or subcritical phases), x1 = 0.8): 106.2 ± 0.54 kg/m3 | mass density (563.15 K, 5522 kPa, Fluid (supercritical or subcritical phases), x1 = 0.9): 123.11 ± 0.62 kg/m3 | mass density (563.15 K, 5594 kPa, Fluid (supercritical or subcritical phases), x1 = 0.2): 114.13 ± 0.58 kg/m3 | mass density (563.15 K, 5876 kPa, Fluid (supercritical or subcritical phases), x1 = 0.9): 133.86 ± 0.68 kg/m3 | mass density (563.15 K, 6362 kPa, Fluid (supercritical or subcritical phases), x1 = 0.8): 140.03 ± 0.71 kg/m3 | mass density (563.15 K, 6504 kPa, Fluid (supercritical or subcritical phases), x1 = 0.2): 150.05 ± 0.77 kg/m3 | mass density (563.15 K, 6690 kPa, Fluid (supercritical or subcritical phases), x1 = 0.9): 163.64 ± 0.83 kg/m3 | mass density (563.15 K, 6728 kPa, Fluid (supercritical or subcritical phases), x1 = 0.8): 155.74 ± 0.79 kg/m3 | mass density (563.15 K, 6993 kPa, Fluid (supercritical or subcritical phases), x1 = 0.2): 175.27 ± 0.9 kg/m3 | mass density (563.15 K, 7120 kPa, Fluid (supercritical or subcritical phases), x1 = 0.8): 169.45 ± 0.86 kg/m3 | mass density (563.15 K, 7244 kPa, Fluid (supercritical or subcritical phases), x1 = 0.2): 189.26 ± 0.98 kg/m3 | mass density (563.15 K, 7275 kPa, Fluid (supercritical or subcritical phases), x1 = 0.8): 175.68 ± 0.9 kg/m3 | mass density (563.15 K, 7389 kPa, Fluid (supercritical or subcritical phases), x1 = 0.8): 180.47 ± 0.92 kg/m3 | mass density (563.15 K, 7397 kPa, Fluid (supercritical or subcritical phases), x1 = 0.9): 189.08 ± 0.96 kg/m3 | mass density (563.15 K, 7718 kPa, Fluid (supercritical or subcritical phases), x1 = 0.2): 219.66 ± 1.1 kg/m3 | mass density (563.15 K, 7728 kPa, Fluid (supercritical or subcritical phases), x1 = 0.8): 192.78 ± 0.98 kg/m3 | mass density (563.15 K, 7738 kPa, Fluid (supercritical or subcritical phases), x1 = 0.9): 201.98 ± 1 kg/m3 | mass density (563.15 K, 8148 kPa, Fluid (supercritical or subcritical phases), x1 = 0.2): 244.99 ± 1.3 kg/m3 | mass density (563.15 K, 8285 kPa, Fluid (supercritical or subcritical phases), x1 = 0.9): 220.25 ± 1.1 kg/m3 | mass density (563.15 K, 8310 kPa, Fluid (supercritical or subcritical phases), x1 = 0.8): 213.43 ± 1.1 kg/m3 | mass density (563.15 K, 8376 kPa, Fluid (supercritical or subcritical phases), x1 = 0.2): 258.68 ± 1.3 kg/m3 | mass density (563.15 K, 8439 kPa, Fluid (supercritical or subcritical phases), x1 = 0.2): 262.38 ± 1.3 kg/m3 | mass density (563.15 K, 8483 kPa, Fluid (supercritical or subcritical phases), x1 = 0.8): 219.19 ± 1.1 kg/m3 | mass density (563.15 K, 8609 kPa, Fluid (supercritical or subcritical phases), x1 = 0.2): 271.82 ± 1.4 kg/m3 | mass density (563.15 K, 8640 kPa, Fluid (supercritical or subcritical phases), x1 = 0.9): 232.6 ± 1.2 kg/m3 | mass density (563.15 K, 8748 kPa, Fluid (supercritical or subcritical phases), x1 = 0.9): 236.06 ± 1.2 kg/m3 | mass density (563.15 K, 8876 kPa, Fluid (supercritical or subcritical phases), x1 = 0.9): 240.45 ± 1.2 kg/m3 | mass density (563.15 K, 8904 kPa, Fluid (supercritical or subcritical phases), x1 = 0.8): 234.24 ± 1.2 kg/m3 | mass density (563.15 K, 8945 kPa, Fluid (supercritical or subcritical phases), x1 = 0.2): 289.96 ± 1.5 kg/m3 | mass density (563.15 K, 8965 kPa, Fluid (supercritical or subcritical phases), x1 = 0.9): 243.76 ± 1.2 kg/m3 | mass density (563.15 K, 9207 kPa, Fluid (supercritical or subcritical phases), x1 = 0.8): 244.86 ± 1.2 kg/m3 | mass density (563.15 K, 9294 kPa, Fluid (supercritical or subcritical phases), x1 = 0.2): 306.21 ± 1.6 kg/m3 | mass density (563.15 K, 9393 kPa, Fluid (supercritical or subcritical phases), x1 = 0.2): 310.43 ± 1.6 kg/m3 | mass density (563.15 K, 9613 kPa, Fluid (supercritical or subcritical phases), x1 = 0.2): 318.13 ± 1.6 kg/m3 | mass density (563.15 K, 9648 kPa, Fluid (supercritical or subcritical phases), x1 = 0.8): 258.06 ± 1.3 kg/m3 | mass density (563.15 K, 10165 kPa, Fluid (supercritical or subcritical phases), x1 = 0.8): 271.99 ± 1.4 kg/m3 | mass density (563.15 K, 10334 kPa, Fluid (supercritical or subcritical phases), x1 = 0.2): 340.56 ± 1.7 kg/m3 | mass density (563.15 K, 10363 kPa, Fluid (supercritical or subcritical phases), x1 = 0.9): 281.45 ± 1.4 kg/m3 | mass density (563.15 K, 10433 kPa, Fluid (supercritical or subcritical phases), x1 = 0.2): 343.35 ± 1.7 kg/m3 | mass density (563.15 K, 10875 kPa, Fluid (supercritical or subcritical phases), x1 = 0.8): 287.81 ± 1.4 kg/m3 | mass density (563.15 K, 11127 kPa, Fluid (supercritical or subcritical phases), x1 = 0.9): 301.08 ± 1.5 kg/m3 | mass density (563.15 K, 11345 kPa, Fluid (supercritical or subcritical phases), x1 = 0.8): 298.6 ± 1.5 kg/m3 | mass density (563.15 K, 11776 kPa, Fluid (supercritical or subcritical phases), x1 = 0.9): 311.7 ± 1.6 kg/m3 | mass density (563.15 K, 11942 kPa, Fluid (supercritical or subcritical phases), x1 = 0.2): 377.85 ± 1.9 kg/m3 | mass density (563.15 K, 12196 kPa, Fluid (supercritical or subcritical phases), x1 = 0.2): 382.64 ± 1.9 kg/m3 | mass density (563.15 K, 12285 kPa, Fluid (supercritical or subcritical phases), x1 = 0.8): 314.73 ± 1.6 kg/m3 | mass density (563.15 K, 12687 kPa, Fluid (supercritical or subcritical phases), x1 = 0.2): 390.46 ± 2 kg/m3 | mass density (563.15 K, 13176 kPa, Fluid (supercritical or subcritical phases), x1 = 0.9): 333.36 ± 1.7 kg/m3 | mass density (563.15 K, 13452 kPa, Fluid (supercritical or subcritical phases), x1 = 0.8): 333.18 ± 1.7 kg/m3 | mass density (563.15 K, 14255 kPa, Fluid (supercritical or subcritical phases), x1 = 0.8): 344.68 ± 1.7 kg/m3 | mass density (563.15 K, 14845 kPa, Fluid (supercritical or subcritical phases), x1 = 0.2): 417.82 ± 2.1 kg/m3
